Source: publication PMC5466683, “Development and Evaluation of ^18F-IRS for Molecular Imaging Mutant EGF Receptors in NSCLC” (Scientific Reports, 2017)

Experiments:
H1975 cells [1] = assay: MTT cell growth inhibition assay; assay type: cell-based; conditions: Homo sapiens, NCI-H1975, H1975 cells (L858R and T790M EGFR mutations), 48 h
Procedure: (§1) NSCLC having EGFR with L858R mutation is also respond to EGFR kinase inhibitors. H3255 cells expressing EGFR L858R mutant is sensitive to EGFR kinase inhibitors. In order to measure the sensitivity of five NSCLC cell lines to F-IRS, […] assay was performed. Tumor cells were plated at a density of 2 × 10^3 cells/well into 96-well plates in RPMI 1640 with 10% FBS. Cells were kept in the log phase of proliferative activity. Various concentrations of F-IRS added to each well, and incubation was continued for an additional 48 h. Then, 50 μL of MTT solution (2 mg/mL; Sigma) were added to all wells, and incubation was continued for another 2 h. The media containing MTT solution was removed, and the precipitated material was dissolved by adding 100 μL of DMSO. The absorbance was measured with a microplate reader at test and reference wavelengths of […], respectively. The percentage of growth is shown relative to untreated controls.

H3255 cells = assay: MTT cell growth inhibition assay; assay type: cell-based; conditions: Homo sapiens, NCI-H3255, H3255 cells (EGFR L858R mutant), 48 h
Procedure: as §1

H358 cells [2] = assay: MTT cell growth inhibition assay; assay type: cell-based; conditions: Homo sapiens, NCI-H358, H358 cells (WT EGFR), 48 h
Procedure: as §1

H520 cells [3] = assay: MTT cell growth inhibition assay; assay type: cell-based; conditions: Homo sapiens, NCI-H520, H520 cells (negative EGFR), 48 h
Procedure: as §1

HCC827 cells [4] = assay: MTT cell growth inhibition assay; assay type: cell-based; conditions: Homo sapiens, HCC827 cells (19 exon deleted mutant EGFR), 48 h
Procedure: as §1

HCC827 cells [5] = assay: Cellular uptake, efflux and blocking assay; assay type: cell-based, human; conditions: for cellular uptake: HCC827 cells
Procedure: (§2) Cells were trypsinized and seeded overnight in 12-well culture plates at a density of 1 × 10^5 cells per well (1 × 10^5 cells/1.0 mL/well). ^18F-IRS (37 kBq/1.0 mL/well) in 1 ml of serum free 1640 medium was added to each well and incubated at 37 °C for 15 min, 30 min, 60 min and 120 min. Triplicates were carried out for each time point. One milliliter of ice-cold PBS was used to intercept the uptake of tracer. The supernatants were aspirated and the cells were rinsed twice with 1 mL of ice-cold PBS to remove surface-bound radioactive ligand. After washing twice with PBS, the cells were harvested by the addition of 250 μl of 0.1 N NaOH. Efflux assays were performed after 120 min of incubation with ^18F-IRS and then the media was removed and replaced with serum free 1640 medium without ^18F-IRS. At 15 min, 30 min, 60 min and 120 min, the media was removed and the cells washed twice with ice-cold PBS. 200 μl of 0.1 N NaOH were added to […] the cells and then the wells were washed twice with 1 ml of ice-cold PBS. The cell solution and the PBS from each washed well were recovered and counted with CPM in a gamma counter (Wizard 2, PerkinElmer). The results were calculated using the same cellular uptake formula. For blocking experiments, gefitinib (100 μmol/L) was added to HCC827 cells. After 60 min of incubation, the uptake and efflux assays in HCC827 cells were repeated thrice.

H1975 cells [6] = assay: Cellular uptake and efflux assay; assay type: cell-based, human; conditions: 120 min of incubation
Procedure: as §2

H358 cells [7] = assay: Cellular uptake and efflux assay; assay type: cell-based, human; conditions: 120 min of incubation
Procedure: as §2

H520 cells [8] = assay: Cellular uptake and efflux assay; assay type: cell-based, human; conditions: 120 min of incubation
Procedure: as §2

HCC827 xenografts [9] = assay: In vivo PET/CT imaging and blocking of tumor-bearing mice; set-up: species or system BALB/c nude mice
Procedure: (§3) All animal studies were conducted in accordance with the China Guidelines for Animal Care and Ethic for Animal Experiments and the experimental protocols were approved by the Animal Use and Care Committee of Harbin Medical University. Female BALB/c nude mice (from the Shanghai Slack Experimental Animal Center of qualified animals SCXK) approximately 4–6 weeks of age and mean weight 20–22 g were used. Approximately 5 × 10^6 of cultured HCC827, H1975, H358 and H520 cells were suspended in PBS/Matrigel (1:1) (BD Bioscience) and subcutaneously implanted in the right shoulders of Female BALB/c nude mice. PET/CT studies were performed when the tumor volume reached 250 mm^3 (4–6 weeks after inoculation).
(§4) PET/CT imaging of tumor-bearing mice was performed on a clinical time-of-flight (TOF) 64-slice PET/Computed tomography (CT) scanner (Discovery 790 Elite, GE healthcare). The mice bearing tumors (for each group n = 4) were injected with 3.7 MBq (100 μCi) of ^18F-IRS into the tail vein. At 30 min, 60 min and 120 min after injection, the mice were anesthetized with 2% isoflurane and placed near the center of the field of view of the PET/CT scanner in prone position. For blocking studies, gefitinib (100 mg/kg) was injected into HCC827 xenografts nude mice (n = 4) via tail vein 60 min before PET/CT imaging. The mice were imaged as described above 120 min after injection.
(§5) The images were reconstructed using a two-dimensional ordered-subset expectation maximization (OSEM) algorithm. For each scan, regions of interest (ROIs) were drawn over the tumor and major organs using the AW4.6 software (GE Healthcare) on decay-corrected whole-body coronal images. The radioactivity concentrations (accumulations) within the tumor, muscle were obtained from mean pixel values within the multiple ROI volumes and then converted to megabecquerels per milliliter per minute using the calibration factor determined for the PET system. These values were then divided by the administered activity to obtain (assuming a tissue density of 1 g/ml) an image ROI-derived percent injected dose per gram (% ID/g).

H1975 xenografts = assay: In vivo PET/CT imaging of tumor-bearing mice; set-up: species or system BALB/c nude mice; conditions: H1975 tumors, all time points
Procedure: as §3, §4, §5

H358 xenografts [10] = assay: In vivo PET/CT imaging of tumor-bearing mice; set-up: species or system BALB/c nude mice; conditions: H358 tumors, all time points
Procedure: as §3, §4, §5

H520 xenografts [11] = assay: In vivo PET/CT imaging of tumor-bearing mice; set-up: species or system BALB/c nude mice; conditions: H520 tumors, all time points
Procedure: as §3, §4, §5

H358 xenografts [12] = assay: Ex vivo biodistribution, tumor uptake; assay type: in vivo, BALB/c nude mice; conditions: H358 tumors, 120 min after injection
Procedure: as §3
(§6) Biodistribution studies were performed in BALB/c nude mice bearing HCC827, H1975, H358 and H520 xenografts by injecting 3.7MBq of ^18F-IRS into the tail vein (n = 4 per group) and then sacrificing the animals at 30 min, 60 min and 120 min after injection. Tumor and normal tissues were excised and weighed, and the radioactivity was measured using a gamma-counter (Wizard 2, PerkinElmer). All measurements were background-subtracted and decay-corrected to the time of injection and then averaged together. The radioactivity uptake in tumor and normal tissues was expressed as the percentage of the injected dose per gram of organ (% ID/g).

H520 xenografts [13] = assay: Ex vivo biodistribution, tumor uptake; assay type: in vivo, BALB/c nude mice; conditions: H520 tumors, 120 min after injection
Procedure: as §3, §6

HCC827 xenografts [14] = assay: Ex vivo biodistribution, tumor uptake; assay type: in vivo, BALB/c nude mice
Procedure: as §3, §6

[15] = Biodistribution and clearance in normal organs of tumor-bearing mice; assay type: in vivo, BALB/c nude mice
Procedure: as §4, §6

[16] = system: NSCLC with responsive EGFR exon 19 deleted; assay: PET/CT examination of patients with NSCLC; assay type: in vivo, human
Text: This study (ClinicalTrials.gov number, NCT03031522) was approved by the Medical Ethics Review Committee of the Fourth Hospital of Harbin Medical University. Subjects signed written informed consent after receiving an explanation of the study. The images provided in this article have been agreed by the subjects. The diagnosis was confirmed by histopathological examination. Three patients confirmed having NSCLC with responsive EGFR exon 19 deleted by histopathology participated in the study from January 2015 to February 2016 (Table 2). ^18F-IRS scans were performed on PET/CT (Discovery 790 Elite; GE healthcare). Approximately 222MBq (6 mCi) of ^18F-IRS was administered intravenously within 5 minutes. Scanning was in initiated 1 hour after administration of ^18F-IRS. Corresponding whole body CT scans for attenuation correction were acquired using a low-dose protocol. Consecutively, PET emission data were acquired in three-dimensional mode with a 200 × 200 matrix with 3 min emission time per bed position. The maximum standard uptake value (SUVmax) normalized to body weight […] was calculated within the region of interest with the following formula: [measured activity concentration (Bq/mL) · body weight (kg)]/injected activity (Bq). Calculation of the radioactivity concentration included the use of a calibration factor that converted the activity counts into becquerels, and the decay correction of the Advantage Workstation 4.6 workstation (GE Healthcare) was […].

H1975 = system: H1975; set-up: method as in PMID 15767641; conditions: H1975, L858R and T790M secondary mutation; cited from earlier work
H358 cell line = system: H358 cell line; set-up: method as in PMID 19826406; conditions: H358 (EGFR wild type); cited from earlier work
H520 cells [17] = system: H520 cells; set-up: method as in PMID 21152424; conditions: H520 (negative EGFR); cited from earlier work
[18] = HCC827 tumors, 120 min after i.v. injection of 3.7 MBq
[19] = Mean ± SD of three patients, 60 min after injection
[20] = patient 1, 60 min after injection
[21] = patient 2, 60 min after injection
[22] = patient 3, 60 min after injection

Structure (SMILES): FCCOCCOCCOCCOc1cc2ncnc(Nc3ccc(F)c(Cl)c3)c2cc1OCCCN1CCOCC1 [F-IRS]
- IC50 (H1975 cells [1]): 2.27 ± 1.17 µM
- IC50 (H3255 cells): 0.0131 ± 0.0044 µM
- IC50 (H358 cells [2]): 7.05 ± 2.3 µM
- IC50 (H520 cells [3]): 18.4 ± 2.21 µM
- IC50 (HCC827 cells [4]): 0.0056 ± 0.0002 µM

Structure (SMILES): Fc1ccc(Nc2ncnc3cc(OCCOCCOCCOCC[18F])c(OCCCN4CCOCC4)cc23)cc1Cl [^18F-IRS]
- cellular uptake after blocking (HCC827 cells [5]; HCC827 cells treated with 100 μmol/L gefitinib, 120 min of incubation): 0.89 ± 0.12%
- cellular uptake (HCC827 cells [5]; 15 min of incubation): 7.51 ± 1.05%
- cellular uptake (HCC827 cells [5]; 30 min of incubation): 10.03 ± 0.47%
- cellular uptake (HCC827 cells [5]; 120 min of incubation): 14.07 ± 0.98%
- cellular uptake (H1975 cells [6]): 1.49 ± 0.05%
- cellular uptake (H358 cells [7]): 1.82 ± 0.19%
- cellular uptake (H520 cells [8]): 2.31 ± 0.36%
- accumulation in tumors on PET/CT images (HCC827 xenografts [9]; [18]): significantly high accumulation
- tumor/muscle ratio (PET quantification) (HCC827 xenografts [9]; HCC827 vs H1975, H358 and H520 xenografts, 120 min, P < 0.01): significantly higher
- tumor uptake on PET/CT after blocking (HCC827 xenografts [9]; HCC827 xenografts, gefitinib 100 mg/kg before imaging, 120 min): blocked by gefitinib
- tumor uptake on PET/CT images (H1975 xenografts): unobviously detectable
- tumor uptake on PET/CT images (H358 xenografts [10]): unobviously detectable
- tumor uptake on PET/CT images (H520 xenografts [11]): unobviously detectable
- tumor uptake (ex vivo biodistribution) (H358 xenografts [12]): 1.68 ± 0.29 % ID/g
- tumor uptake (ex vivo biodistribution) (H520 xenografts [13]): 1.62 ± 0.08 % ID/g
- tumor uptake (ex vivo biodistribution) (HCC827 xenografts [14]; [18]): 4.27 ± 0.15 % ID/g
- tumor uptake (ex vivo biodistribution) after blocking (HCC827 xenografts [14]; HCC827 xenografts blocked by gefitinib 100 mg/kg, 120 min): 1.12 ± 0.21 ID/g
- route of elimination ([15]; mice, PET/CT imaging and biodistribution): mainly eliminated through renal clearance
- uptake in all other organs and blood ([15]; tumor-bearing nude mice, except kidneys, intestine and gallbladder): very low
- SUVmax Bladder [16, 19]: 5.11 ± 3.02
- SUVmax Brain [16, 19]: 0.43 ± 0.29
- SUVmax Kidneys [16, 19]: 13.13 ± 0.31
- SUVmax Liver [16, 19]: 10.48 ± 0.44
- SUVmax Lungs [16, 19]: 0.82 ± 0.23
- SUVmax Muscles [16, 19]: 0.65 ± 0.14
- SUVmax Small intestines [16, 19]: 8.05 ± 1.67
- SUVmax Tumor [16, 19]: 2.44 ± 0.49
- SUVmax Bladder [16, 20]: 8.51
- SUVmax Brain [16, 20]: 0.19
- SUVmax Kidneys [16, 20]: 12.96
- SUVmax Liver [16, 20]: 10.52
- SUVmax Lungs [16, 20]: 0.58
- SUVmax Muscles [16, 20]: 0.73
- SUVmax Small intestines [16, 20]: 7.17
- SUVmax Tumor [16, 20]: 2.19
- SUVmax Bladder [16, 21]: 4.11
- SUVmax Brain [16, 21]: 0.76
- SUVmax Kidneys [16, 21]: 13.49
- SUVmax Liver [16, 21]: 10.9
- SUVmax Lungs [16, 21]: 1.04
- SUVmax Muscles [16, 21]: 0.75
- SUVmax Small intestines [16, 21]: 9.99
- SUVmax Tumor [16, 21]: 2.12
- SUVmax Bladder [16, 22]: 2.72
- SUVmax Brain [16, 22]: 0.34
- SUVmax Kidneys [16, 22]: 12.95
- SUVmax Liver [16, 22]: 10.02
- SUVmax Lungs [16, 22]: 0.85
- SUVmax Muscles [16, 22]: 0.49
- SUVmax Small intestines [16, 22]: 7.01
- SUVmax Tumor [16, 22]: 3.01
- main route of elimination ([16]; patients with NSCLC): urinary tract, followed by the hepatobiliary
- changes in heart rates, respiration rates, and blood pressure ([16]; patients with NSCLC, after i.v. injection): no significant changes

Structure (SMILES): COc1cc2ncnc(Nc3ccc(F)c(Cl)c3)c2cc1OCCCN1CCOCC1 [gefitinib]
- sensitivity of cell line (H1975): conferring resistance
- sensitivity of cell line (H358 cell line): less sensitive
- sensitivity of cell line (H520 cells [17]): do not respond
